Data: ChEMBL document CHEMBL1124001, “Synthesis and antileukemic activity of bis[[(carbamoyl)oxy]methyl]- substituted pyrrolo[2,1-a]isoquinolines, pyrrolo[1,2-a]quinolines, pyrrolo[2,1-a]isobenzazepines, and pyrrolo[1,2-a]benzazepines” (J Med Chem, 1988)

Experiments:
[1] = test system: Mus musculus; assay: Ratio of treated to that of untreated tumor-bearing control animals at 1.56 mg/kg intraperitoneally in CD2F1 mice was determined; assay type: functional; details: route intraperitoneal
[2] = test system: Mus musculus; assay: Body weight change of test animals to that of control was determined after injection at 1.56 mg/kg intraperitoneally in CD2F1 mice; assay type: functional; details: route intraperitoneal
[3] = test system: Mus musculus; assay: Toxicity day survivors was determined by the ratio of animals survived to that of test animals at 3.12 mg/kg intraperitoneally in CD2F1 mice; 6/6; assay type: organism-based; parameters: dose 3.12 mg/kg, route intraperitoneal; details: in vivo, ip
[4] = test system: Mus musculus; assay: Body weight change of test animals to that of control was determined after injection at 6.25 mg/kg intraperitoneally in CD2F1 mice; assay type: functional; details: route intraperitoneal
[5] = test system: Mus musculus; assay: Toxicity day survivors was determined by the ratio of animals survived to that of test animals at 12.5 mg/kg intraperitoneally in CD2F1 mice; 6/6; assay type: organism-based; parameters: dose 12.5 mg/kg, route intraperitoneal; details: in vivo, ip
[6] = test system: Mus musculus; assay: Net log cell kill was determined after injecting 6.25 mg/kg intraperitoneally in CD2F1 mice; assay type: functional; details: route intraperitoneal
[7] = test system: Mus musculus; assay: Toxicity day survivors was determined by the ratio of animals survived to that of test animals at 50 mg/kg intraperitoneally in CD2F1 mice; 3/6; assay type: organism-based; parameters: dose 50 mg/kg, route intraperitoneal; details: in vivo, ip
[8] = test system: Mus musculus; assay: Body weight change of test animals to that of control was determined after injection at 25 mg/kg intraperitoneally in CD2F1 mice; assay type: functional; details: route intraperitoneal
[9] = test system: Mus musculus; assay: Body weight change of test animals to that of control was determined after injection at 50 mg/kg intraperitoneally in CD2F1 mice; assay type: functional; details: route intraperitoneal
[10] = test system: Mus musculus; assay: Toxicity day survivors was determined by the ratio of animals survived to that of test animals at 100 mg/kg intraperitoneally in CD2F1 mice; 0/6; assay type: organism-based; parameters: dose 100 mg/kg, route intraperitoneal; details: in vivo, ip
[11] = test system: Mus musculus; assay: Body weight change of test animals to that of control was determined after injection at 3.12 mg/kg intraperitoneally in CD2F1 mice; assay type: functional; details: route intraperitoneal
[12] = test system: Mus musculus; assay: Toxicity day survivors was determined by the ratio of animals survived to that of test animals at 1.56 mg/kg intraperitoneally in CD2F1 mice; 6/6; assay type: organism-based; parameters: dose 1.56 mg/kg, route intraperitoneal; details: in vivo, ip
[13] = test system: Mus musculus; assay: Ratio of treated to that of untreated tumor-bearing control animals at 12.5 mg/kg intraperitoneally in CD2F1 mice was determined; assay type: functional; details: route intraperitoneal
[14] = test system: Mus musculus; assay: Net log cell kill was determined after injecting 12.5 mg/kg intraperitoneally in CD2F1 mice; assay type: functional; details: route intraperitoneal
[15] = test system: Mus musculus; assay: Ratio of treated to that of untreated tumor-bearing control animals at 3.12 mg/kg intraperitoneally in CD2F1 mice was determined; assay type: functional; details: route intraperitoneal
[16] = test system: Mus musculus; assay: Net log cell kill was determined after injecting 1.56 mg/kg intraperitoneally in CD2F1 mice; assay type: functional; details: route intraperitoneal
[17] = test system: Mus musculus; assay: Net log cell kill was determined after injecting 3.12 mg/kg intraperitoneally in CD2F1 mice; assay type: functional; details: route intraperitoneal
[18] = test system: Mus musculus; assay: Toxicity day survivors was determined by the ratio of animals survived to that of test animals at 25 mg/kg intraperitoneally in CD2F1 mice; 4/6; assay type: organism-based; parameters: dose 25 mg/kg, route intraperitoneal; details: in vivo, ip
[19] = test system: Mus musculus; assay: Toxicity day survivors was determined by the ratio of animals survived to that of test animals at 6.25 mg/kg intraperitoneally in CD2F1 mice; 6/6; assay type: organism-based; parameters: dose 6.25 mg/kg, route intraperitoneal; details: in vivo, ip
[20] = test system: Mus musculus; assay: Body weight change of test animals to that of control was determined after injection at 12.5 mg/kg intraperitoneally in CD2F1 mice; assay type: functional; details: route intraperitoneal
[21] = test system: Mus musculus; assay: Ratio of treated to that of untreated tumor-bearing control animals at 6.25 mg/kg intraperitoneally in CD2F1 mice was determined; assay type: functional; details: route intraperitoneal
[22] = test system: Mus musculus; assay: Toxicity day survivors was determined by the ratio of animals survived to that of test animals at 50 mg/kg intraperitoneally in CD2F1 mice; 6/6; assay type: organism-based; parameters: dose 50 mg/kg, route intraperitoneal; details: in vivo, ip
[23] = test system: Mus musculus; assay: Net log cell kill was determined after injecting 25 mg/kg intraperitoneally in CD2F1 mice; assay type: functional; details: route intraperitoneal
[24] = test system: Mus musculus; assay: Net log cell kill was determined after injecting 50 mg/kg intraperitoneally in CD2F1 mice; assay type: functional; details: route intraperitoneal
[25] = test system: Mus musculus; assay: Body weight change of test animals to that of control was determined after injection at 100 mg/kg intraperitoneally in CD2F1 mice; assay type: functional; details: route intraperitoneal
[26] = test system: Mus musculus; assay: Ratio of treated to that of untreated tumor-bearing control animals at 25 mg/kg intraperitoneally in CD2F1 mice was determined; assay type: functional; details: route intraperitoneal
[27] = test system: Mus musculus; assay: Toxicity day survivors was determined by the ratio of animals survived to that of test animals at 100 mg/kg intraperitoneally in CD2F1 mice; 2/6; assay type: organism-based; parameters: dose 100 mg/kg, route intraperitoneal; details: in vivo, ip
[28] = test system: Mus musculus; assay: Ratio of treated to that of untreated tumor-bearing control animals at 50 mg/kg intraperitoneally in CD2F1 mice was determined; assay type: functional; details: route intraperitoneal
[29] = test system: Mus musculus; assay: Toxicity day survivors was determined by the ratio of animals survived to that of test animals at 25 mg/kg intraperitoneally in CD2F1 mice; 6/6; assay type: organism-based; parameters: dose 25 mg/kg, route intraperitoneal; details: in vivo, ip

Row | Compound | T-C [4] [g] | TDS [5] | KE [6] | T-C [8] [g] | T-C [9] [g] | T/C [13] [%] | KE [14] | TDS [19] | T-C [20] [g] | T/C [21] [%] | other results
1 | CC(C)NC(=O)OCc1cn2c(c1COC(=O)NC(C)C)-c1ccccc1CC2 | -0.8 | 6 | 1.6 | -4.2 | -3.5 | 188 | 3.84 | 6 | -3.1 | 157 | T/C [1]: 130%; T-C [2]: -0.3 g; TDS [3]: 6; TDS [7]: 3; TDS [10]: 0; T-C [11]: -0.5 g; TDS [12]: 6; T/C [15]: 136%; KE [16]: -0.38; KE [17]: 0; TDS [18]: 4
2 | Cc1c(COC(=O)NC(C)C)c(COC(=O)NC(C)C)c2n1CCc1ccccc1-2 | -0.9 | 6 | 1.28 | -4.2 | -4 | 157 | 1.6 | 6 | -2.6 | 153 | TDS [22]: 6; KE [23]: 2.24; KE [24]: 2.82; T-C [25]: -3.8 g; T/C [26]: 166%; TDS [27]: 2; T/C [28]: 174%; TDS [29]: 6
